According to US8128959B2, “Polymeric pharmaceutical agent for treatment of cancer and method for production of the same” (Hiroshi Maeda, priority 2005, dated 2012):

Experiment: Solubility in water
Type: physicochemical
From the text: In order to solubilize it in water, the present inventors have conjugated it with amphiphilic polyethylene glycol (PEG) having an average molecular weight of 100-20,000 (preferably about 5,000) (patent document 2) to create a water-soluble derivative thereof.

solubility in water: insoluble in water
SMILES: C=CC1=C(C)c2cc3[n-]c(cc4nc(cc5[n-]c(cc1n2)c(C)c5C=C)C(C)=C4CCC(=O)O)c(CCC(=O)O)c3C.[Zn+2] [ZnPP, zinc-protoporphyrin]
